The values below come from US9969715B2, “Compounds useful for treating cancer” (ABIVAX, priority 2012, dated 2018).

In one series the test system is human PBMC. Put plainly: Toxicity assay under normal cell culture conditions (MTS), PBMC. The format is cell-based. The settings on record: human PBMC, RPMI+10% FBS+IL-2, 72 h incubation, MTS. As for the experimental part: (§1) Toxicity Assays (Under Normal Cell Culture Conditions):
(§2) Compounds were prepared as for the invasion assay, and then added to either MDA-MB231-luc-D3H2LN cells (2000/well) under normal culture conditions (MEM+10% FBS), or human PBMC (75000/well, in RPMI+10% FBS+IL-2) in standard 96-well tissue culture plates. After 72 h incubation, a standard MTS assay was performed according to the manufacturer's instructions (Promega Ref. G3581). Compounds were tested at various concentrations (concentration-response curves) in order to determine the concentrations at which 50% toxicity is obtained.

The test system of series [1] is MDA-MB231-luc-D3H2LN cells. Put plainly: Viability (MTS) assay on the cells in collagen under invasion assay conditions. The format is cell-based, human. The settings on record: loss of viability at the concentration giving 0.5 × effect of 10 μM Y-27632, invasion assay conditions. The method, then:
(§3) Viability assay, fixation and staining: Following another 24 h incubation, an MTS assay is performed directly on the cells in the collagen. Then, cells are fixed and nuclei are stained.
(§4) In order to detect possible toxic effects, all compounds are tested in parallel in a viability assay. The viability assay is performed in parallel on serum-starved cells (as in the invasion assay) vs. cells under normal culture conditions (10% FBS).
Viability Assay: MTS Assay:
add each 33 μl/well of the MTS reagent, incubate 3-4 h at 37° C./5% CO2
read absorbance at 490 nm (proportional to the viability)
calculate the background-corrected signals by subtracting the means of the background signals in absence of cells from the corresponding signals in presence of cells
normalize the background-corrected signals with respect to the mean signal of the negative controls (no drug) (viabilities are thus expressed in “% of control”)
(§5) Final analysis: Determine the concentration at which a given compound has 50% of the anti-invasive effect of the positive control (10 μM Y-27632). Determine the toxicity (=loss of viability) of the compound under these conditions.

Series [2] relates to MDA-MB231-luc-D3H2LN cells. Put plainly: Toxicity assay under normal cell culture conditions (MTS), MDA cells. In kind it is cell-based, human. As to conditions: MDA-MB231-luc-D3H2LN cells, MEM+10% FBS, 72 h incubation, MTS. The method, then: as §4, §1, §2
Series [3] relates to MDA-MB231-luc-D3H2LN cells. Put plainly: Invasion of MDA-MB231-D3H2LN cells into collagen (example 15 = procedure 2, 48 h drug pre-incubation). In kind it is cell-based. The settings on record: concentration giving 50% of the anti-invasive effect of 10 μM Y-27632; 48 h pre-incubation, 24 h with 5% FBS; read-out: MDA: Inhib. of invasion: 0.5 × eff. of 10 μM Y-27632 at (μM) av. The method, then:
Effect of Drug Compounds on Invasion of MDA-MB231-D3H2LN Cells into Collagen
Preparation of cells at the bottom of a collagen gel: Cells are suspended in a liquid collagen solution (4° C.), distributed into BSA-coated wells, and then collected at the bottom of the wells by centrifugation. The collagen is then solidified by incubation at 37° C. The BSA coating improves the adhesion of the collagen gel.
Pre-treatment with the compounds to be tested: Concentrated drug solutions are then added on top of the collagen, and cells are pre-incubated for 48 h with the drugs at low serum conditions (0.025% FBS).
Stimulation of invasion: Medium with 5% FBS is then added in order to stimulate invasion of the cells into the collagen gel.
as §3
Analysis: Finally, plates are analyzed using an automated microscope. Fluorescent beads that have been included into the BSA coating serve to detect the bottom of the wells. Pictures of the stained nuclei are taken at the same level (0 μm) as well as 25 μm and 50 μm above.
Negative control: No drug (just DMSO at equivalent concentration). Positive control: 10 μM Y-27632. To avoid edge effects, cells are added only to the 60 central wells B2-G11; lines A and H receive only collagen without cells (blank for the MTS assay) columns 1 and 12 remain free. Each drug is tested at least in triplicate. The positive and negative controls should be tested in several triplicates at different positions on each plate. Typical plate map (−=negative control, +=positive control, 1-12=12 different test conditions, i. e. different drug compounds or concentrations):
Preparation of 4× concentrated drug solutions in MEM+0.1% FBS+2% Lutrol E-400+0.8% DMSO: Mix each 620 μl MEM+0.1% FBS+2% Lutrol E-400 with each 4 μl DMSO+each 1 μl of the 50 mM compound stock solutions (yielding […] and 0.8% DMSO). If the desired final compound concentration is <5 μM, then further dilute in MEM+0.1% FBS+0.8% DMSO. Negative control: MEM+0.1% FBS+2% Lutrol E-400+0.8% DMSO without any drug. Preparation of the positive control: Mix 4.5 ml MEM+0.1% FBS+2% Lutrol E-400+[…] with 36 μl 5 mM Y-27632 (freshly thawed aliquot) (yielding 40 μM).
add each 33 μl/well of the 4× concentrated drug solutions in MEM+0.1% FBS+2% Lutrol E-400+0.8% DMSO to the corresponding wells (yields 1× concentrated drugs in MEM+0.025% FBS+0.5% Lutrol E-400+0.2% DMSO final)
incubate 48 h at 37° C./5% CO2
incubate 24 h at 37° C./5% CO2
for each well, calculate the mean invasion distance of the counted cells: (25 μm×number of cells at 25 μm+50 μm×number cells at 50 μm)/sum of cells at 0, 25 and 50 μm
invalidate any replicate with a CV≥50% (compound to be re-tested, or assay to be repeated if CV≥50% for the untreated negative control or the compound Y-27632-treated positive control). Y27632 is a selective inhibitor of the Rho-associated protein kinase p160ROCK of the following formula
validate the assay only if the mean invasion distance of the cells treated with 10 μM Y-27632 (positive control) is decreased by ≥40% as compared to the untreated negative control
as §5
Here, invasion (into collagen) is the concentration of the compound necessary to reach 50% of the inhibition effect compared to 10 μM Y-27632.
Standard operating procedure 2 is exactly the same as the procedure as described in example 15.

Regarding `CN1CCN(CCCNC(=O)c2cccc(Nc3cccc(C(=O)N(C)c4ccncc4)c3)c2)CC1` [Compound 20, N-methyl-3-((3-((3-(4-methylpiperazin-1-yl)propyl)carbamoyl)phenyl)amino)-N-(pyridin-4-yl)benzamide], the “PBMC tox.: 50% tox. at (μM) av” value in the series on human PBMC was more than 100 µM. Also, in series [1], the “(+ MDA tox. under these cond.) % tox” value was less than 10%. Further, in series [2], the “MDA tox: 50% tox. at (μM) av” value was more than 100 µM. Also, the IC50 in series [3] worked out at 0.85 µM.

For the compound `CN(C(=O)c1cccc(Nc2cccc(C(=O)NCCCN3CCCCC3)c2)c1)c1ccncc1` [Compound 21, N-methyl-3-((3-((3-(piperidin-1-yl)propyl)carbamoyl)phenyl)amino)-N-(pyridin-4-yl)benzamide], in the series on human PBMC, the “PBMC tox.: 50% tox. at (μM) av” value was more than 100 µM. Moreover, the “(+ MDA tox. under these cond.) % tox” value in series [1] is less than 10%. Besides, the “MDA tox: 50% tox. at (μM) av” value in series [2] was more than 100 µM. In series [3], the IC50 is 2.05 µM.

For `CN(C(=O)c1cccc(Nc2cccc(C(=O)NCCCN3CCOCC3)c2)c1)c1ccncc1` [Compound 22, N-methyl-3-((3-((3-morpholinopropyl)carbamoyl)phenyl)amino)-N-(pyridin-4-yl)benzamide], the “PBMC tox.: 50% tox. at (μM) av” value with human PBMC was more than 100 µM. The “(+ MDA tox. under these cond.) % tox” value in series [1] is on record as less than 10%. The “MDA tox: 50% tox. at (μM) av” value in series [2] is more than 100 µM. For the same compound, the IC50 in series [3] was determined as 2.25 µM.

For `CN(C(=O)c1cccc(Nc2cccc(S(=O)(=O)NCCCN3CCCCC3)c2)c1)c1ccncc1` [Compound 24, N-methyl-3-((3-(N-(3-(piperidin-1-yl)propyl)sulfamoyl)phenyl)amino)-N-(pyridin-4-yl)benzamide], the “PBMC tox.: 50% tox. at (μM) av” value in the series on human PBMC is not below 100 µM. Also, the “(+ MDA tox. under these cond.) % tox” value in series [1] is reported as less than 10%. Moreover, in series [2], the “MDA tox: 50% tox. at (μM) av” value was more than 100 µM. Moreover, the IC50 in series [3] worked out at 3.55 µM.

In the case of `CCN(CC)CCCNC(=O)c1cccc(Nc2cccc(C(=O)Nc3ccncn3)c2)c1` [Compound 25, N-(3-(diethylamino)propyl)-3-((3-(pyrimidin-4-ylcarbamoyl)phenyl)amino)benzamide], the “PBMC tox.: 50% tox. at (μM) av” value in the series on human PBMC was 88 µM. Also, in series [1], the “(+ MDA tox. under these cond.) % tox” value is on record as less than 10%. Further, the “MDA tox: 50% tox. at (μM) av” value in series [2] worked out at 46 µM. Further, in series [3], the IC50 is less than 0.5 µM.

Take `CCN(CC)CCCNS(=O)(=O)c1cccc(Nc2cccc(C(=O)Nc3ccncn3)c2)c1` [Compound 26, 3-((3-(N-(3-(diethylamino)propyl)sulfamoyl)phenyl)amino)-N-(pyrimidin-4-yl)benzamide]: the “PBMC tox.: 50% tox. at (μM) av” value in the series on human PBMC was 85 µM. Further, the “(+ MDA tox. under these cond.) % tox” value in series [1] is less than 10%. Also, the “MDA tox: 50% tox. at (μM) av” value in series [2] came out at 73 µM. Moreover, in series [3], the IC50 worked out at 3.6 µM.

Regarding `O=C(Nc1ccncn1)c1cccc(Nc2cccc(S(=O)(=O)NCCCN3CCCCC3)c2)c1` [Compound 27, 3-((3-(N-(3-(piperidin-1-yl)propyl)sulfamoyl)phenyl)amino)-N-(pyrimidin-4-yl)benzamide], the “PBMC tox.: 50% tox. at (μM) av” value in the series with human PBMC was 61 µM. Moreover, in series [1], the “(+ MDA tox. under these cond.) % tox” value is reported as less than 10%. Moreover, the “MDA tox: 50% tox. at (μM) av” value in series [2] is 66 µM. The IC50 in series [3] was 2.8 µM.

For the compound `O=C(NCCCN1CCCC1)c1cccc(Nc2cccc(C(=O)Nc3ccncn3)c2)c1` [Compound 28, N-(pyrimidin-4-yl)-3-((3-((3-(pyrrolidin-1-yl)propyl)carbamoyl)phenyl)amino)benzamide], in the series on human PBMC, the “PBMC tox.: 50% tox. at (μM) av” value was found to be 49 µM. In series [1], the “(+ MDA tox. under these cond.) % tox” value is less than 10%. Moreover, in series [2], the “MDA tox: 50% tox. at (μM) av” value is 35 µM. The IC50 in series [3] was 0.26 µM.

For `O=C(NCCCN1CCCCC1)c1cccc(Nc2cccc(C(=O)Nc3ccncn3)c2)c1` [Compound 29, N-(3-(piperidin-1-yl)propyl)-3-((3-(pyrimidin-4-ylcarbamoyl)phenyl)amino)benzamide], the “PBMC tox.: 50% tox. at (μM) av” value with human PBMC turned out to be 44 µM. Besides, the “(+ MDA tox. under these cond.) % tox” value in series [1] is given as less than 10%. Further, in series [2], the “MDA tox: 50% tox. at (μM) av” value was 33 µM. The IC50 in series [3] is 0.15 µM.

In the case of `O=C(NCCCN1CCOCC1)c1cccc(Nc2cccc(C(=O)Nc3ccncn3)c2)c1` [Compound 30, N-(3-morpholinopropyl)-3-((3-(pyrimidin-4-ylcarbamoyl)phenyl)amino)benzamide], in the series with human PBMC, the “PBMC tox.: 50% tox. at (μM) av” value was more than 100 µM. Also, the “(+ MDA tox. under these cond.) % tox” value in series [1] is less than 10%. Besides, the “MDA tox: 50% tox. at (μM) av” value in series [2] was found to be 75 µM. Also, the IC50 in series [3] stood at 0.28 µM.

In the case of `CN1CCN(CCCNC(=O)c2cccc(Nc3cccc(C(=O)Nc4ccncn4)c3)c2)CC1` [Compound 31, N-(3-(4-methylpiperazin-1-yl)propyl)-3-((3-(pyrimidin-4-ylcarbamoyl)phenyl)amino)benzamide], the “PBMC tox.: 50% tox. at (μM) av” value in the series on human PBMC came out at 92 µM. For the same compound, the “(+ MDA tox. under these cond.) % tox” value in series [1] is recorded as less than 10%. In addition, the “MDA tox: 50% tox. at (μM) av” value in series [2] amounted to 95 µM. Also, in series [3], the IC50 is 0.1 µM.

Regarding `CCN(CC)CCCNC(=O)c1cncc(Nc2cccc(C(=O)Nc3ccncc3)c2)c1` [Compound 32, N-(3-(diethylamino)propyl)-5-((3-(pyridin-4-ylcarbamoyl)phenyl)amino) nicotinamide], the “PBMC tox.: 50% tox. at (μM) av” value in the series on human PBMC is recorded as >>100 μM. The “(+ MDA tox. under these cond.) % tox” value in series [1] is less than 10%. Besides, in series [2], the “MDA tox: 50% tox. at (μM) av” value was >>100 μM. Moreover, in series [3], the IC50 was found to be 13.3 µM.

Turning to `CCN(CC)CCCNC(=O)c1ccnc(Nc2cccc(C(=O)Nc3ccncc3)c2)c1` [Compound 33, N-(3-(diethylamino)propyl)-2-((3-(pyridin-4-ylcarbamoyl)phenyl)amino) isonicotinamide], the “PBMC tox.: 50% tox. at (μM) av” value in the series on human PBMC amounted to 130 µM. Moreover, in series [1], the “(+ MDA tox. under these cond.) % tox” value is recorded as less than 10%. For the same compound, the “MDA tox: 50% tox. at (μM) av” value in series [2] is 118 µM. The IC50 in series [3] was 2.13 µM.

As to `CN1CCN(CCCNC(=O)c2ccnc(Nc3cccc(C(=O)Nc4ccncc4)c3)c2)CC1` [Compound 34], the “PBMC tox.: 50% tox. at (μM) av” value in the series on human PBMC is more than 100 µM. Also, the “(+ MDA tox. under these cond.) % tox” value in series [1] is recorded as less than 10%. Also, the “MDA tox: 50% tox. at (μM) av” value in series [2] was 98 µM. The IC50 in series [3] turned out to be 0.4 µM.
